Test results: PMC6152678, “In Vitro Comparative Study of the Inhibitory Effects of Mangiferin and Its Aglycone Norathyriol towards UDP-Glucuronosyl Transferase (UGT) Isoforms” (Molecules : A Journal of Synthetic Chemistry and Natural …, 2017)

Tests used:
UGT2B17 = target: T1, UGT2B17 (Homo sapiens, UniProt O75795); assay: Inhibition of recombinant UGT-catalyzed 4-MU glucuronidation; assay type: biochemical; details: pH 7.4, probe 4-methylumbelliferone (4-MU), 2000 μM, 100 μM compound, 4-MU probe substrate, negative = activation
T1 construct: purchased BD Gentest Corp. (Woburn, MA, USA); host or cells: baculovirus-infected insect cells
T1 sequence (O75795 24-530): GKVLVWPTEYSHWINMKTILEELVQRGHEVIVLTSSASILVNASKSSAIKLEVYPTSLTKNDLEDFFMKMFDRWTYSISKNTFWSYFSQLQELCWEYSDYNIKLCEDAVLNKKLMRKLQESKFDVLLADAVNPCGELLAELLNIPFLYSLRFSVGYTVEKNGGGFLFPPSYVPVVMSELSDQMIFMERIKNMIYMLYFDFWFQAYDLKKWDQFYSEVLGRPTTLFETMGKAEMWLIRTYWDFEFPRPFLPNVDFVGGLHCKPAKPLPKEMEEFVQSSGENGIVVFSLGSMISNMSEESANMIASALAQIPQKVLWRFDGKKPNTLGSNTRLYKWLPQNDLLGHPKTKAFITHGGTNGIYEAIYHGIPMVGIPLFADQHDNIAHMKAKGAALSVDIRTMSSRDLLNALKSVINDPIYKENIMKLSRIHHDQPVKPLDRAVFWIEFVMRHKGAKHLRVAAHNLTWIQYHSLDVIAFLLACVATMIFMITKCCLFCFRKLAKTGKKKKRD

UGT1A8 = target: T2, UGT1A8 (Homo sapiens, UniProt Q9HAW9); assay: as above; assay type: biochemical; details: pH 7.4, probe 4-methylumbelliferone (4-MU), 750 μM, 100 μM compound, 4-MU probe substrate, negative = activation
T2 construct: purchased BD Gentest Corp. (Woburn, MA, USA); host or cells: baculovirus-infected insect cells
T2 sequence (Q9HAW9 26-530): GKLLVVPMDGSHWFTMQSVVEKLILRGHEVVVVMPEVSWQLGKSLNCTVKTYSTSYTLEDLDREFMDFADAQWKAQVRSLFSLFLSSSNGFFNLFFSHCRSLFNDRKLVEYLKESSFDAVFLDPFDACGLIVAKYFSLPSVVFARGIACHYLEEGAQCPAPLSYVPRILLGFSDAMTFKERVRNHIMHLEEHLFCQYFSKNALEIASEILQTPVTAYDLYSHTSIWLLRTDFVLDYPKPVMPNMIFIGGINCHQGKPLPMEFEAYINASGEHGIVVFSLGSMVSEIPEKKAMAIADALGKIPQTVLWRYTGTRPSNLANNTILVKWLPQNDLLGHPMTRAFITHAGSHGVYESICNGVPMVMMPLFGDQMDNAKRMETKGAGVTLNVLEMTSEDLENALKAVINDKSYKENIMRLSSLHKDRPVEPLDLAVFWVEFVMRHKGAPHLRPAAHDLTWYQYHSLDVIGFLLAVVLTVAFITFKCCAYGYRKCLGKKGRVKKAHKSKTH

inhibition at 120 min, 100 µM (UGT2B17) [%] | inhibition at 30 min, 100 µM (UGT1A8) [%] | Structure (SMILES)
-106 | -70.9 | O=c1c2cc(O)c(O)cc2oc2cc(O)c([C@@H]3O[C@H](CO)[C@@H](O)[C@H](O)[C@H]3O)c(O)c12 [MGF, 1,3,6,7-tetrahydroxyxanthone-C-2-β-D-glucoside]
48.6 | 57 | O=c1c2cc(O)c(O)cc2oc2cc(O)cc(O)c12 [NTR, 1,3,6,7-tetrahydroxyxanthone]
